In patent US8999983B2, “Modulators of Hec1 activity and methods therefor” (Taivex Therapeutics Corporation, priority 2011, dated 2015):
Values belong to the compound of their own block, whether it stands above or below them.

Assays:
hERG potassium channels = molecular target: T1, hERG potassium channels (Homo sapiens, UniProt Q12809); assay: [3H]Astemizole competitive binding assay, hERG; settings: [3H]-astemizole displacement, hERG membrane protein
T1 construct: purchased PerkinElmer
Protocol: Here, [3H] Astemizole competitive binding assays were performed to determine the ability of compounds to displace the known radioligand [3H]-astemizole from the hERG potassium channels, following standard protocol with minor modifications. In brief, assays were performed in 200 μl of binding buffer (50 mM HEPES, pH 7.4, 60 mM KCl, and 0.1% BSA) containing 1.5 nM of [3H]astemizole, 3 μg/well of hERG membrane protein (PerkinElmer), and TAI-1 (in 1% DMSO final concentration) at 27° C. for 60 min. Nonspecific binding (NSB) was determined in the presence of 10 μM astemizole. […] Binding was terminated by rapid filtration onto polyethyleneimine-presoaked, buffer-washed UniFilter-96, GF/C (Perkin Elmer) using a vacuum manifold (Porvair Sciences). Captured radiolabel signal was detected using TopCount NXT (Perkin Elmer). […] All results are derived from two independent experiments.

MDA-MB-231 = assay: Antiproliferation assay (MTS), MDA-MB-231 cells; assay type: cell-based; settings: Homo sapiens, MDA-MB-231, 96 h, read-out: Antiproliferative IC50 MDA-MB-231, Table 1
Protocol: (§1) Cells were grown at 37° C. in a humidified atmosphere consisting of 5% CO2 and 95% air.
(§2) Antiproliferation Assays: Cells were plated in a 96-well culture plate with 2000-8000 cells per well. The compounds were prepared in DMSO and used to treat cells in a final concentration of less than 1% DMSO. Compound treatment started after overnight incubation of cells (T0). […] Compound was added to the plate in triplicate wells, and the plates were then incubated for 96 hours. DMSO (compound diluent) was also included and added to the plate in control wells. Cell viability was then determined by MTS assay using the CellTiter 96® aqueous non-radioactive cell proliferation assay system (Promega, Madison, Wis. 53711 USA). A plate reader (Vmax, Molecular Devices, Sunnyvale Calif. 94089 USA) was used to determine the optical densities, and the results were used to deduce concentration-response curves. […] The results were analyzed using linear regression software (GraphPad Prism 5; GraphPad Software Inc. La Jolla Calif. 92037 USA).

[1] = tested on: caspase-3, PARP, Mcl-1 and XIAP; assay: Immunoblot of apoptotic pathway proteins; assay type: cell-based; settings: 1 μM, 24 or 48 hours
Protocol: Immunoblot Analysis: For immunoblotting experiments, cells were plated in a 6-well culture plate and cultured overnight. Cells were incubated with the test compounds for the indicated time and whole cell lysate was harvested by adding 1×SDS-PAGE Sample Buffer (62.5 mM Tris-HCl (pH 6.8 at 25° C.), 2% w/v SDS, 10% glycerol, 50 mM DTT, and 0.01% w/v bromophenol blue or phenol red). Proteins were separated by SDS-PAGE electrophoresis and transferred to PVDF membrane. Protein expression was immunoblotted using various primary antibodies and detected using Immobilon Western Chemiluminescent HRP Substrate (Millipore, Billerica Mass. 01821 USA). Antibodies used include anti-Cleaved Caspase3, (Rabbit, Cell Signaling Technology, Danvers Mass. 01923 USA); anti-PARP (Rabbit, Cell Signaling Technology, Danvers Mass. 01923 USA); anti-MCL-1 (mouse, BD Biosciences, San Jose Calif. 95131 USA); anti-XIAP (rabbit, Cell Signaling Technology, Danvers Mass. 01923 USA); anti-Bcl-2 (mouse, Santa Cruz Biotechnology, Santa Cruz Calif. 95060); anti-Cyclin BI (mouse, BD Biosciences, San Jose Calif. 95131 USA); anti-Cyclin D1 (mouse, Santa Cruz Biotechnology, Santa Cruz Calif. 95060); Anti-Nek2 (mouse, BD Biosciences, San Jose Calif. 95131 USA); Anti-HEC1, (rabbit, GeneTex, Inc., Irvine Calif. 92606 USA); and anti-actin (mouse, Millipore, Billerica Mass. 01821 USA).
100 nM Taxol was used as a positive control drug for apoptosis.

K562 = assay: Antiproliferation assay (MTS), K562 cells; assay type: cell-based; settings: Homo sapiens, K562, 96 h, Table 1, read-out: Antiproliferative IC50 K562
Protocol: as §1, §2

MDA-MB-468 = assay: Antiproliferation assay (MTS), MDA-MB-468 cells; assay type: cell-based; settings: Homo sapiens, MDA-MB-468, 96 h, Table 1, read-out: Antiproliferative IC50 MDA-MB-468
Protocol: as §1, §2

Hela = assay: Antiproliferation assay (MTS), HeLa cells; assay type: cell-based; settings: Homo sapiens, 96 h, Table 1, read-out: Antiproliferative IC50 Hela
Protocol: as §1, §2

Caco-2 cell monolayers = assay: Caco-2 cell permeability; assay type: in vitro ADME; settings: 10 μM, 2 hour, both directions
Protocol: Here, Caco-2 cell line (cat. HTB-37TM) was purchased from the ATCC. Cells were cultivated in T-75 flasks in a cell culture incubator set at 37° C., 5% CO2, 95% relative humidity. Cells were allowed to grow to reach 80-90% confluence before seeding. […] The cells were grown in culture medium consisting of Dulbecco's modified Eagle's medium supplemented with 10% fetal bovine serum, 100 U/mL penicillin and 100 μg/mL streptomycin. The culture medium was replaced every 2 days and the cells were maintained at 37° C., 95% relative humidity and 5% CO2.
For a quality integrity control of the monolayers of seeded cells, the Lucifer yellow (LY) transport experiment was performed to evaluate monolayer integrity. As for a quality control of each filter, the transepithelial electrical resistance (TEER) was measured before the start of and at the end of transport experiments. Physiologically and morphologically well developed Caco-2 cell monolayers with TEER values greater than 400 Ωcm^2 were used for the studies.
The solution volumes in apical and basolateral chambers were set to 0.4 and 0.6 ml respectively. Samples were taken from both the apical and basolateral compartment at the end of the 2 hour incubation at 37° C. […] The excitation and emission wavelengths were 490 nm and 530 nm, respectively.

[2] = Pharmacokinetics of salt forms, single IV dose; assay type: in vivo, CD-1 mice; settings: male, CD-1, mouse
Protocol: (§3) Pharmacokinetics of Hec1 Inhibitor Salts: Pharmacokinetic comparison of different salt forms (HCl, tosylate, mesylate salt) was studied for the compounds as shown in Table 3 below:
(§4) Formulations for both PO (oral) and IV (intravenous) doses were prepared in saline with 2% Tween 80 and 10% DMSO. Concentrations were adjusted based on the molecular weights of the freebase and salts.
IV studies: A single dose of 1 mg/kg of each of the three test articles was IV administered to 21 healthy male CD-1 mice (weight ranged from 18-27 g). The dosing volume was 5 mL/kg. Food and water were available to all animals during the experiment period.
(§5) Three mice were bled (ca. 1 mL) at each timepoint (0.5, 1, 1.5, 2, 4, 6, and 24 hours post-dose for PO study and 0.083, 0.5, 1, 2, 4, 6, and 24 hours post-dose for IV study) by cardiac puncture and blood was collected into K3EDTA blood collection tubes. Blood samples were centrifuged immediately at 4° C. at 3000 rpm for 10 min. Plasma samples were transferred and stored at −20° C. prior to analysis.
(§6) The plasma concentrations of 110095 (compound 27 of Table 1, the free base of all three test articles) were determined by LC MS/MS in the positive MRM mode; all doses were normalized to the freebase (110095) concentration. The mean plasma concentration from each time point (n=3) were used to calculate the PK parameters using a non-compartmental model. Pharmacokinetic parameters (Cmax, Tmax, t½, AUC, etc.) were calculated using WinNonlin Software (version 5.3, Pharsight, Sunnyvale Calif. 94086 USA), the results and absolute bioavailability results are presented in Table 6. Table 4 lists mean concentrations (ng/mL) of 110095 in mouse plasma following a single oral dose of 10 mg/kg of 110095-HCl-1007, 110095-03-03 or 110095-02-02 to CD-1 mice, and Table 5 lists mean concentrations (ng/mL) of 110095 in mouse plasma following a single IV dose of 1 mg/kg of 110095-HCl-1007, 110095-03-03 or 110095-02-02 to CD-1 mice. Table 6 lists PK parameters and absolute bioavailability result of 110095-HCl-1007, 110095-03-03 or 110095-02-02 in CD-1 mice.

[3] = Pharmacokinetics of salt forms, single oral dose; assay type: in vivo, CD-1 mice; settings: male, CD-1, mouse, plasma
Protocol: as §3, §4
PO studies: A single dose of 10 mg/kg of each of the three test compounds was orally administered to 21 healthy male CD-1 mice (weight ranged from 18-27 g). The dosing volume was […]. Animals were fasted approximately 16 hours prior to dosing until 4 hours post dosing. Water was available to all animals during the experiment period.
as §5, §6

T1 sequence (Q12809 whole entry): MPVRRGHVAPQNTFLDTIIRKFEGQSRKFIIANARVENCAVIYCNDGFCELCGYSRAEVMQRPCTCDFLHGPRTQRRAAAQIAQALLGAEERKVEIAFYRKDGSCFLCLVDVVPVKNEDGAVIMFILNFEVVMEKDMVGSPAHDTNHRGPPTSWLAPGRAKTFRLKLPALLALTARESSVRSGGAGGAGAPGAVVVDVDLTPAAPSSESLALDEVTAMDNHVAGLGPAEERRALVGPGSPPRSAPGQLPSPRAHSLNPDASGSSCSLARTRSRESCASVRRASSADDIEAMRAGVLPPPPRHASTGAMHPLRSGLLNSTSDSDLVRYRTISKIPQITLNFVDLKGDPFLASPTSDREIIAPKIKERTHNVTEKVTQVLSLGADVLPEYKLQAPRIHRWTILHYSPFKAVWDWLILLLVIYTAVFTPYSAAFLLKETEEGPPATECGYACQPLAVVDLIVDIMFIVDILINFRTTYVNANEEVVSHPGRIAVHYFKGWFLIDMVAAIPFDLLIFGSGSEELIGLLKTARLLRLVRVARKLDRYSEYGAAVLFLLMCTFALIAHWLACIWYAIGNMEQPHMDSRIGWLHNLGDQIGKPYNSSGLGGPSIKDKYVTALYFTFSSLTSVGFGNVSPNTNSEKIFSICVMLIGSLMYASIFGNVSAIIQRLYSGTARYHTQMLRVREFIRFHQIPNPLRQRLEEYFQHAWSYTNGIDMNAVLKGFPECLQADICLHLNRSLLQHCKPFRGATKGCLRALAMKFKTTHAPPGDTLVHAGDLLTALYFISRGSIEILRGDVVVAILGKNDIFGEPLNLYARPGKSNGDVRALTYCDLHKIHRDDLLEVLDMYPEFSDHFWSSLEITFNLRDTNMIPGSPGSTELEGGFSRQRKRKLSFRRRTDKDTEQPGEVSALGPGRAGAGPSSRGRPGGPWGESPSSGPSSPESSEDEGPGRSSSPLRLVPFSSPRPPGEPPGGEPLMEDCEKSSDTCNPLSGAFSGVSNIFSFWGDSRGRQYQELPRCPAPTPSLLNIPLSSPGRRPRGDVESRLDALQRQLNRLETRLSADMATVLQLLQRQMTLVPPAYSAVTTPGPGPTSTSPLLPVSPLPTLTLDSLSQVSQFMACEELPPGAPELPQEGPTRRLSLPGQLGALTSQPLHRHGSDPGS

Structure (SMILES): COc1cnc(Sc2cc(C)c(-c3csc(NC(=O)c4ccncc4)n3)c(C)c2)cn1 [Compound 25, N-{4-(4-(5-Methoxypyrazin-2-ylthio)-2,6-dimethylphenyl)thiazol-2-yl}isonicotinamide]
- IC50 (hERG potassium channels): > 10000 nM

Structure (SMILES): Cc1cc(Sc2cnccn2)cc(C)c1-c1csc(NC(=O)c2ccnc(F)c2)n1 [Compound 19, N-{4-(2,6-Dimethyl-4-(pyrazin-2-ylthio)phenyl)thiazol-2-yl}-2-fluoroisonicotinamide]
- IC50 (MDA-MB-231): 32 nM
- levels of apoptotic (caspase-3, PARP) and anti-apoptotic (Mcl-1, XIAP) proteins [1]: cleavage of the apoptotic proteins accompanied by down-regulation of the anti-apoptotic proteins
- IC50 (K562): 37.6 nM
- IC50 (MDA-MB-468): 60.1 nM
- IC50 (Hela): 35.6 nM

Structure (SMILES): COCCOc1ccc(Oc2cc(C)c(-c3csc(NC(=O)c4ccnc(F)c4)n3)c(C)c2)cc1 [Compound 20, 2-Fluoro-N-(4-{4-(4-(2-methoxyethoxy)phenoxy)-2,6-dimethylphenyl}thiazol-2-yl)isonicotinamide]
- IC50 (MDA-MB-231): 7.5 nM
- levels of apoptotic (caspase-3, PARP) and anti-apoptotic (Mcl-1, XIAP) proteins [1]: cleavage of the apoptotic proteins accompanied by down-regulation of the anti-apoptotic proteins
- IC50 (K562): 14.1 nM
- IC50 (MDA-MB-468): 10.4 nM
- IC50 (Hela): 10.9 nM

The next lines start with results.

- Caco-2 permeability (Caco-2 cell monolayers): moderate Caco-2 permeability
Structure (SMILES): COCCOc1cnc(Oc2cc(C)c(-c3csc(NC(=O)c4ccncc4)n3)c(C)c2)cn1 [Compound 22, N-(4-{4-(5-(2-Methoxyethoxy)pyrazin-2-yloxy)-2,6-dimethylphenyl}thiazol-2-yl)isonicotinamide]
- IC50 (hERG potassium channels): > 10000 nM

- AUC(0-inf) ([2]; in vivo, iv, 1 mg/kg): 3000 ng·h/mL
- AUC(0-t) ([2]; in vivo, iv, 1 mg/kg): 2980 ng·h/mL
- MRT ([2]; in vivo, iv, 1 mg/kg): 3.3 h
- half-life ([2]; in vivo, iv, 1 mg/kg): 3.61 h
- concentration at […] ([2]; plasma, IV 1 mg/kg, 0.083 h, read-out: mean concentration of 110095 in mouse plasma): 870 ng/mL
- concentration at 0.5 h ([2]; plasma, IV 1 mg/kg, 0.5 h, read-out: mean concentration of 110095 in mouse plasma): 684 ng/mL
- concentration at 1 h ([2]; plasma, IV 1 mg/kg, 1 h, read-out: mean concentration of 110095 in mouse plasma): 549 ng/mL
- concentration at 2 h ([2]; plasma, IV 1 mg/kg, 2 h, read-out: mean concentration of 110095 in mouse plasma): 422 ng/mL
- concentration at 4 h ([2]; plasma, IV 1 mg/kg, 4 h, read-out: mean concentration of 110095 in mouse plasma): 202 ng/mL
- concentration at 6 h ([2]; plasma, IV 1 mg/kg, 6 h, read-out: mean concentration of 110095 in mouse plasma): 93.2 ng/mL
- concentration at 24 h ([2]; plasma, IV 1 mg/kg, 24 h, read-out: mean concentration of 110095 in mouse plasma): 3.68 ng/mL
- AUC(0-inf) ([3]; PO 10.0 mg/kg): 25100 ng·h/mL
- AUC(0-t) ([3]; PO 10.0 mg/kg): 25100 ng·h/mL
- Cmax ([3]; PO 10.0 mg/kg): 4060 ng/mL
- MRT ([3]; PO 10.0 mg/kg): 4.11 h
- Tmax ([3]; PO 10.0 mg/kg): 1 h
- half-life ([3]; PO 10.0 mg/kg): 2.81 h
- bioavailability ([3]; PO 10.0 mg/kg vs IV 1.00 mg/kg, read-out: F % (absolute bioavailability)): 84%
- concentration at 0.5 h ([3]; PO 10 mg/kg, 0.5 h, read-out: mean concentration of 110095 in mouse plasma): 1800 ng/mL
- concentration at 1 h ([3]; PO 10 mg/kg, 1 h, read-out: mean concentration of 110095 in mouse plasma): 4060 ng/mL
- concentration at […] ([3]; PO 10 mg/kg, 1.5 h, read-out: mean concentration of 110095 in mouse plasma): 3660 ng/mL
- concentration at 2 h ([3]; PO 10 mg/kg, 2 h, read-out: mean concentration of 110095 in mouse plasma): 3560 ng/mL
- concentration at 4 h ([3]; PO 10 mg/kg, 4 h, read-out: mean concentration of 110095 in mouse plasma): 2170 ng/mL
- concentration at 6 h ([3]; PO 10 mg/kg, 6 h, read-out: mean concentration of 110095 in mouse plasma): 1140 ng/mL
- concentration at 24 h ([3]; PO 10 mg/kg, 24 h, read-out: mean concentration of 110095 in mouse plasma): 14.8 ng/mL
Structure (SMILES): COCCOc1cnc(Sc2cc(C)c(-c3csc(NC(=O)c4ccncc4)n3)c(C)c2)cn1.Cl [110095-HCl-1007]
